Results: patent US8957049B2, “Inhibitors of fatty acid amide hydrolase” (Infinity Pharmaceuticals, Inc., priority 2008, dated 2015)

Target: T1, human FAAH (Homo sapiens, UniProt O00519)
T1 construct: host or cells: COS-7 cells, transient transfection (FuGENE 6); 13,000 g membrane fraction solubilised in 1% Triton X-100
T1 sequence (O00519 1-579): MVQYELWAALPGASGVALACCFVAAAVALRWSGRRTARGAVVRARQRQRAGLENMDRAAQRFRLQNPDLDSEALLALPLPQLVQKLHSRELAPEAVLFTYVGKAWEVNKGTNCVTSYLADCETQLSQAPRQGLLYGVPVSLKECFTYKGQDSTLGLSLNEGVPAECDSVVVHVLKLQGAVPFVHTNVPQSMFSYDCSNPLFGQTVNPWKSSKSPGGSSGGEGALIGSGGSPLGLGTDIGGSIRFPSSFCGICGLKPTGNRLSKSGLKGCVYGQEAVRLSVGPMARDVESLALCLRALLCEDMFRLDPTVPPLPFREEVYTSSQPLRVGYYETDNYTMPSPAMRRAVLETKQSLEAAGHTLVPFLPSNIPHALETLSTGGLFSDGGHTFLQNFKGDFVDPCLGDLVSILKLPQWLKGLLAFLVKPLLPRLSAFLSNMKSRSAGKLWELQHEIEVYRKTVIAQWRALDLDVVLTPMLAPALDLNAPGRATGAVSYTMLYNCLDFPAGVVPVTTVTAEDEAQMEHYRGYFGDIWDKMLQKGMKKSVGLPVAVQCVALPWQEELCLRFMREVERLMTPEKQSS
Assay: Human FAAH biochemical inhibition assay (AMC arachidonoyl amide fluorescence)
Conditions: Table A, read-out: Activity (Ki) of other boronic acids tested, Table A
Experimental: Exemplary compounds are set forth in the Examples provided below. Compounds were assayed as inhibitors of human FAAH using the method described in detail in Example 286.
The following assays may be used to determine the inhibition of FAAH by the compounds of the present invention: (1) a fluorescence-based assay for fatty acid amide hydrolase compatible with high-throughput screening as described in Manjunath et al., Analytical Biochemistry (2005) 343:143-151; and (2) a high-throughput screening for the discovery of inhibitors of fatty acid amide hydrolase using a microsome-based fluorescent assay. Wang et al., Biomolecular Screening (2006) 1-9.
COS-7 cells were split the day before, 1:5 into 150 mm×25 mm cell culture dishes (Corning Inc., Cat. No. 430599). Transient transfection took place at 30-40% confluency according to FuGENE 6 Transfection Reagent (Roche, Cat. No. 11814 443 001).
The FuGENE transfection 6 reagent (45 uL) was added to 1410 μL of media (DMEM, serum free without pen/strep) in a 15 mL conical tube and incubated at room temp for 5 minutes, followed by the addition of FAAH plasmid DNA (15 μg) (OriGene Cat. No. TC119221, Genbank Accession No. NM_001441.1, 0.67 ug/uL) and a further incubation of 15 minutes at room temperature. The resulting solution was added into one dish of 30-40% confluent COS-7 cells in a drop-wise manner. The COS-7 cell dish was subsequently incubated for 48 hours. The cells are then harvested.
Media was aspirated from the dishes and the cells rinsed with 10 mL PBS. The PBS was removed and 3 mL of PBS added to the dish. The dish was scraped to resuspend the cells, and the subsequent cell suspension collected into a 15 mL conical tube. The cells were pelleted by centrifugation at 1200 rpm for 5 minutes in a bench top centrifuge. PBS was removed and the cell pellet snap frozen in liquid nitrogen and stored at −80° C.
COS-7 Cells—FAAH Purification: • (1) Fractionation: Frozen cell pellets from transient transfections were thawed on ice and resuspended in 12.5 mM Hepes pH 8.0, 100 mM NaCl, 1 mM EDTA (10 mL/0.2 g cell pellet). The pellets were dounce homogenized and then sonicated to produce cell extract. The cell extract was subsequently centrifuged at 1000 g to remove cellular debris. The pellet was discarded and the supernatant centrifuged at 13,000 g for 20 minutes. The pellet contained membrane bound FAAH. The supernatant was discarded and the pellet resolubilized. • (2) Re-solubilization: The fraction of interest, (13,000 g, membrane fraction) was re-suspended in 2.3 mL re-suspension buffer (20 mM Hepes pH 7.8, 10% v/v Glycerol, 1 mM EDTA, 1% Triton X-100) and the sample incubated on ice for 1 hour and then centrifuged to remove any particulate matter. The supernatant containing solubilized human FAAH was aliquoted and snap frozen in liquid nitrogen and stored at −80° C. until use. • (3) Characterization: Protein Concentration determined by Bradford assay. • SDS gel and Western blot to confirm presence of FAAH • FAAH activity assay • Km determination—96-well assay • Linear dependence—96-well assay • Standard compound Ki determination—384-well assay
Rat FAAH biochemical assays were carried out in a 96 well flat bottom black non-treated polystyrene plates (Corning Costar Catalogue #3915). FAAH reaction buffer: 50 mM Hepes (pH 7.5), 1 mM EDTA, 0.2% Triton X-100. FAAH substrate—AMC Arachidonoyl Amide (Cayman Chemicals Company, Catalog #10005098). The reaction was read in an Envision microtiter plate reader [Excitation filter 355 nm (40 nm bandpass); Emmision filter 460 nm (25 nm bandpass)]. The raw fluorescence was plotted on the y axis and the inhibitor concentration on the x axis to give a dose response inhibition curve. The data was fitted to a single site competitive inhibition equation, fixing the Km for the rat and human enzyme to 12 μM and 9 μM respectively. […]

Compound	Ki
OB(O)c1ccc(C(F)(F)F)nc1	100 to 1000 nM
Cc1cc(B2OC(C)(C)C(C)(C)O2)cnc1N1CCN(C)CC1	> 1000 nM
Cc1cc(B(O)O)cnc1N1CCOCC1	100 to 1000 nM
OB(O)c1ccc(-c2ccc(F)cc2)nc1	10 to 100 nM
CC(=O)NCc1ccc(B(O)O)cc1	> 1000 nM
CC(=O)Nc1ccc(B(O)O)cc1	> 1000 nM
COC(=O)Nc1ccc(B(O)O)cc1	> 1000 nM
O=C(Nc1ccccn1)c1ccc(B(O)O)cc1	10 to 100 nM
COCCNC(=O)c1ccc(B(O)O)cc1	100 to 1000 nM
O=S(=O)(c1ccc(B(O)O)cc1)n1cccc1	10 to 100 nM
O=C(O)CCc1ccc(B(O)O)cc1	> 1000 nM
OB(O)c1ccc(OCCn2ccnc2)cc1	100 to 1000 nM
CCOC(=O)COc1ccc(B(O)O)cc1	100 to 1000 nM
OCCCc1ccc(B(O)O)cc1	100 to 1000 nM
O=C(NCCCO)c1ccc(B(O)O)cc1	> 1000 nM
NNC(=O)CCc1ccc(B(O)O)cc1	100 to 1000 nM

Same assay, conditions: class given in each Example, read-out: Activity (Ki, inhibition of human FAAH)

Compound	Ki
OB(O)c1ccc(-c2ncc(-c3ccccc3)o2)cc1F [Compound 1]	10 to 100 nM
OB(O)c1ccc(-c2ncc(-c3ccccc3)o2)cc1 [Compound 2]	10 to 100 nM
OB(O)c1ccc(-c2ncc(-c3ccccc3)s2)cc1F [Compound 3]	> 1000 nM
OB(O)c1ccc(-c2nc(-c3ccccc3)c[nH]2)cc1F [Compound 7]	> 1000 nM
OB(O)c1ccc(-c2nc(CCc3ccccc3)c(-c3ccccc3)s2)cc1 [Compound 8]	> 1000 nM
CCCCCc1nnc(-c2ccc(B(O)O)cn2)o1 [Compound 9]	≤ 10 nM
O=C1CCCN1CCc1nnc(-c2ccc(B(O)O)cc2)o1 [Compound 10]	100 to 1000 nM
Cc1nnc(-c2cc(C(F)(F)F)ccc2B(O)O)o1 [Compound 11]	100 to 1000 nM
OB(O)c1ccc(-c2nnc(-c3ccccc3)o2)nc1 [Compound 12]	10 to 100 nM
CCCc1nnc(-c2ccccc2B(O)O)o1 [Compound 13]	> 1000 nM
CCCc1nnc(-c2cc(OCCc3ccccc3)ccc2B(O)O)o1 [Compound 17]	≤ 10 nM
OB(O)c1ccc(OCCc2ccccc2)cc1-c1nnc(-c2ccco2)o1 [Compound 18]	≤ 10 nM
Cc1nnc(-c2cc(OCCc3ccccc3)ccc2B(O)O)o1 [Compound 19]	≤ 10 nM
OB(O)c1ccc(-c2nnc(CCC(F)(F)C(F)(F)F)o2)cc1 [Compound 20]	≤ 10 nM
OB(O)c1ccc(-c2nnc(-c3cccnc3)o2)cc1 [Compound 21]	≤ 10 nM
CCCc1nnc(-c2ccc(F)cc2B(O)O)o1 [Compound 22]	> 1000 nM
Cc1nc(Cc2nnc(-c3ccc(B(O)O)cc3)o2)cs1 [Compound 23]	10 to 100 nM
CCCc1nc(-c2ccc(B(O)O)cc2)no1 [Compound 24]	≤ 10 nM
CCC/C=C/c1nnc(-c2ccc(B(O)O)cc2)o1 [Compound 25]	≤ 10 nM

Compound	Ki
CCCCCc1nnc(-c2ccc(B(O)O)c(F)c2)o1 [Compound 26]	≤ 10 nM
CCCCCc1nnc(-c2cc(B(O)O)cs2)o1 [Compound 27]	≤ 10 nM
Cc1nnc(/C=C/c2ccccc2B(O)O)o1 [Compound 28]	100 to 1000 nM
CCCCCc1nnc(-c2ccc(B(O)O)cc2Cl)o1 [Compound 29]	≤ 10 nM
CCCCCc1nnc(-c2ccc(B(O)O)cc2)o1 [Compound 30]	≤ 10 nM
OB(O)c1ccccc1-c1nnc(-c2ccccc2)o1 [Compound 31]	> 1000 nM
CCC(C)CCc1nnc(-c2ccc(B(O)O)cc2)o1 (stereo not shown) [Compound 32]	≤ 10 nM
OB(O)c1ccc(-c2nnc(CCC3CCCC3)o2)cc1 [Compound 33]	≤ 10 nM
CCCCC(C)c1nnc(-c2ccc(B(O)O)cc2)o1 (stereo not shown) [Compound 34]	≤ 10 nM
OB(O)c1ccc(-c2nnc(CC3CCCC3)o2)cc1 [Compound 35]	≤ 10 nM
OB(O)c1ccc(-c2nnc(CCC3CCCCC3)o2)cc1 [Compound 36]	≤ 10 nM
CCCCCCc1nnc(-c2ccc(B(O)O)cc2)o1 [Compound 37]	≤ 10 nM
CC(C)CCCc1nnc(-c2ccc(B(O)O)cc2)o1 [Compound 38]	≤ 10 nM
CCCc1nnc(-c2ccc(B(O)O)cc2)o1 [Compound 39]	≤ 10 nM
OB(O)c1ccc(-c2nnc(CCCC(F)(F)F)o2)cc1 [Compound 40]	≤ 10 nM
OB(O)c1ccc(-c2nnc(-c3cncc(F)c3)o2)cc1 [Compound 41]	10 to 100 nM
CCCCc1nnc(-c2ccc(B(O)O)cc2)o1 [Compound 42]	≤ 10 nM
OB(O)c1ccc(-c2nnc(-c3cccc4c3OCCO4)o2)cc1 [Compound 43]	≤ 10 nM
COc1cccc(-c2nnc(-c3ccc(B(O)O)cc3)o2)c1OC [Compound 44]	≤ 10 nM

Compound	Ki
OB(O)c1ccc(-c2nnc(-c3ccc4c(c3)OCO4)o2)cc1 [Compound 45]	≤ 10 nM
OB(O)c1ccc(-c2nnc(-c3cccc4c3OCC4)o2)cc1 [Compound 46]	≤ 10 nM
OB(O)c1ccc(-c2nnc(-c3cccc(C(F)(F)F)c3)o2)cc1 [Compound 47]	≤ 10 nM
OB(O)c1ccc(-c2nnc(-c3cccc(C(F)(F)F)c3)s2)cc1 [Compound 48]	≤ 10 nM
OB(O)c1ccc(-c2nnc(-c3cccnc3)s2)cc1 [Compound 49]	≤ 10 nM
OB(O)c1ccc(-c2nnc(-c3cccc4c3OCO4)s2)cc1 [Compound 50]	≤ 10 nM
Cn1ccc2c(-c3nnc(-c4ccc(B(O)O)cc4)o3)cccc21 [Compound 51]	≤ 10 nM
OB(O)c1ccc(-c2nnc(-c3cccc4c3OC(F)(F)O4)o2)cc1 [Compound 52]	≤ 10 nM
OB(O)c1ccc(-c2nnc(-c3cccc4c3OCO4)o2)cc1 [Compound 53]	≤ 10 nM
Cn1cncc1-c1nnc(-c2ccc(B(O)O)cc2)o1 [Compound 54]	10 to 100 nM
OB(O)c1ccc(-c2nnc(Cc3ccccc3)o2)s1 [Compound 55]	10 to 100 nM
OB(O)c1ccc(-c2nnc(-c3ccccc3)o2)s1 [Compound 56]	10 to 100 nM
OB(O)c1ccc(-c2nnc(CCc3ccccc3)o2)cc1 [Compound 57]	≤ 10 nM
OB(O)c1csc(-c2nnc(CCc3ccccc3)o2)c1 [Compound 58]	≤ 10 nM
OB(O)c1ccc(-c2nnc(Cc3ccsc3)o2)cc1 [Compound 59]	≤ 10 nM
CCCCCc1nnc(-c2coc(B(O)O)c2)o1 [Compound 60]	10 to 100 nM
OB(O)c1csc(-c2nnc(Cc3ccccc3)o2)c1 [Compound 60]	≤ 10 nM
OB(O)c1csc(-c2nnc(-c3ccccc3)o2)c1 [Compound 61]	10 to 100 nM
OB(O)c1ccc(-c2nnc(-c3ccccc3)s2)cc1 [Compound 62]	≤ 10 nM
